# Measurements as given in patent publication US20250313548A1 (Actio Biosciences, Inc., priority 2023, published 2025).
# Biological target: human, KCNT1 (Homo sapiens (Human), UniProt Q5JUK3)
# Assay: FLIPR Tl/K Flux Assay
# Format: cell-based
# Conditions: HEK293 cells stably expressing human KCNT1; Tl+ flux stimulated with EC80 of agonist Loxapine
# Outline: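 Inhibition values come from a Hill-equation fit of % inhibition versus log concentration, using normalized fluorescence (Fmax/Fmin) over a 160 s read. The read followed stimulation with Tl+ plus EC80 agonist loxapine after 30 min compound pre-incubation at 25 °C. Cells were KCNT1-expressing HEK293, dye-loaded 1 h in pH 7.4 HEPES/HBSS with 5 mM probenecid.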
# Chain of human, KCNT1 (Q5JUK3 whole entry): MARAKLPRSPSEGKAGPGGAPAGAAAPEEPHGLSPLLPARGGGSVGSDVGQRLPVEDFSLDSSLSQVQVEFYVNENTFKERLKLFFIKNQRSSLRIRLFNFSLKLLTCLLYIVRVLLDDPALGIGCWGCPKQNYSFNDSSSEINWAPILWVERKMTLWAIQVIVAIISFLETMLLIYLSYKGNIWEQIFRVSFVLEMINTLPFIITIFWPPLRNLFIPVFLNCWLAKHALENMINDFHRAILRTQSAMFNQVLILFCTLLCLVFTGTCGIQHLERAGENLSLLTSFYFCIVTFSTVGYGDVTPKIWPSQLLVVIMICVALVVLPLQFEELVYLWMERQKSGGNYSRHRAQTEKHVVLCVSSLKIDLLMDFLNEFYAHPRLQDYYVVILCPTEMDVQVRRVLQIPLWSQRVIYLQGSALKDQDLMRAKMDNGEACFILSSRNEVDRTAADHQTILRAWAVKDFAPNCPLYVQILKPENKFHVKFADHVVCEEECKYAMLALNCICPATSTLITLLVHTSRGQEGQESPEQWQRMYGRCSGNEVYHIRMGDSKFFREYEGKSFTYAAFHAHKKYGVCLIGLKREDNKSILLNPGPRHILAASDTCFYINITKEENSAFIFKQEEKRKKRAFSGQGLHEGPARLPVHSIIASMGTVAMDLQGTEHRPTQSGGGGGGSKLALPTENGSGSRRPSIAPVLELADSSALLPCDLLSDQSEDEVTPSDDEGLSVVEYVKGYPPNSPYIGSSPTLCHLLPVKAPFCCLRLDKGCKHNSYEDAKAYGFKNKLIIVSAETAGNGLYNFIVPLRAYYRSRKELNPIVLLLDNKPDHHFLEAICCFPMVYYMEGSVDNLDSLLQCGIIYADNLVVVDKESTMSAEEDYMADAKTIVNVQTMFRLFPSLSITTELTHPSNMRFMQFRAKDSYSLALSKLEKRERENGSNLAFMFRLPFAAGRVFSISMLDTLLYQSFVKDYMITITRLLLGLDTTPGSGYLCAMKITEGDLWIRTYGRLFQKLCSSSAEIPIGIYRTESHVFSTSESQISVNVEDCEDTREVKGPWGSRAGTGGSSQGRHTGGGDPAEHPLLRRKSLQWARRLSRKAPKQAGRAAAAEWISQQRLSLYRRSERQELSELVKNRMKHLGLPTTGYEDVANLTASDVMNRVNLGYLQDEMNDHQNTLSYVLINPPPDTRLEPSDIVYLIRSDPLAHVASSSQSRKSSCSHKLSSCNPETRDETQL
row,SMILES,IC50 [nM]
1,"Cn1nc(C2CC2)nc1C(=O)N[C@H]1CCCc2oc(-c3ccnc(C4CC4)c3)nc21 [Compound I-223a, (S)-3-Cyclopropyl-N-(2-(2-cyclopropylpyridin-4-yl)-4,5,6,7-tetrahydrobenzo[d]oxazol-4-yl)-1-methyl-1H-1,2,4-triazole-5-carboxamide]",< 250
2,"Cn1nc(C2CC2)nc1C(=O)N[C@H]1CCn2nc(-c3ccnc(C(F)(F)F)c3)cc21 [Compound I-224a, (S)-3-Cyclopropyl-1-methyl-N-(2-(2-(trifluoromethyl)pyridin-4-yl)-5,6-dihydro-4H-pyrrolo[1,2-b]pyrazol-4-yl)-1H-1,2,4-triazole-5-carboxamide]",< 250
3,"Cc1nc(C(=O)N[C@H]2CCCc3oc(-c4ccnc(C5CC5)c4)nc32)n(C)n1 [Compound I-227a, (S)-N-(2-(2-Cyclopropylpyridin-4-yl)-4,5,6,7-tetrahydrobenzo[d]oxazol-4-yl)-1,3-dimethyl-1H-1,2,4-triazole-5-carboxamide]",> 1000
4,O=C(N[C@H]1CCCc2oc(-c3ccnc(C4CC4)c3)nc21)c1cncc(C(F)(F)F)n1 [Compound I-231a],< 250
5,"N#Cc1cccc(C(=O)N[C@H]2CCCc3oc(-c4ccnc(C5CC5)c4)nc32)c1 [Compound I-232a, (S)-3-Cyano-N-(2-(2-cyclopropylpyridin-4-yl)-4,5,6,7-tetrahydrobenzo[d]oxazol-4-yl)benzamide]",< 250
6,"Cn1nc(C(F)(F)F)cc1C(=O)N[C@H]1CCn2nc(-c3ccnc(OC(F)F)c3)cc21 [Compound I-233a, (S)-N-(2-(2-(Difluoromethoxy)pyridin-4-yl)-5,6-dihydro-4H-pyrrolo[1,2-b]pyrazol-4-yl)-1-methyl-3-(trifluoromethyl)-1H-pyrazole-5-carboxamide]",< 250

# Results, then the molecule that gave them:
row,IC50 [nM],SMILES
1,> 1000,Cn1ncnc1C(=O)N[C@H]1CCn2nc(-c3ccnc(C(F)(F)F)c3)cc21 [Compound I-225a]
2,< 250,"O=C(N[C@H]1CCn2nc(-c3ccnc(C(F)(F)F)c3)cc21)c1ccnc(OC(F)F)c1 [Compound I-226a, (S)-2-(Difluoromethoxy)-N-(2-(2-(trifluoromethyl)pyridin-4-yl)-5,6-dihydro-4H-pyrrolo[1,2-b]pyrazol-4-yl)isonicotinamide]"
3,> 1000,"Cn1ncnc1C(=O)N[C@H]1CCCc2oc(-c3ccnc(C4CC4)c3)nc21 [Compound I-228a, (S)-N-(2-(2-Cyclopropylpyridin-4-yl)-4,5,6,7-tetrahydrobenzo[d]oxazol-4-yl)-1-methyl-1H-1,2,4-triazole-5-carboxamide]"
4,< 250,"Cn1nc(C(F)(F)F)nc1C(=O)N[C@H]1CCCc2oc(-c3ccnc(C4CC4)c3)nc21 [Compound I-229a, (S)-N-(2-(2-Cyclopropylpyridin-4-yl)-4,5,6,7-tetrahydrobenzo[d]oxazol-4-yl)-1-methyl-3-(trifluoromethyl)-1H-1,2,4-triazole-5-carboxamide]"
5,> 1000,"COc1cc(-c2cc3n(n2)CC[C@@H]3NC(=O)c2nc(C)nn2C)ccn1 [Compound I-230a, (S)-N-(2-(2-Methoxypyridin-4-yl)-5,6-dihydro-4H-pyrrolo[1,2-b]pyrazol-4-yl)-1,3-dimethyl-1H-1,2,4-triazole-5-carboxamide]"
6,< 250,"O=C(N[C@H]1CCCn2nc(-c3ccnc(C(F)(F)F)c3)nc21)c1cc(F)cc(F)c1 [Compound I-234a, (S)-3,5-Difluoro-N-(2-(2-(trifluoromethyl)pyridin-4-yl)-5,6,7,8-tetrahydro-[1,2,4]triazolo[1,5-a]pyridin-8-yl)benzamide]"
7,< 250,"Cc1cnc(C(F)(F)F)cc1-n1cc2c(n1)CC[C@@H]2NC(=O)c1cccc(C#N)c1 [Compound I-235a, (S)-3-Cyano-N-(2-(5-methyl-2-(trifluoromethyl)pyridin-4-yl)-2,4,5,6-tetrahydrocyclopenta[c]pyrazol-4-yl)benzamide]"
